Experimental data as given in PMC12380092, “Chemoenzymatic total synthesis of the antibiotic (−)-13-deoxytetrodecamycin using the Diels–Alderase TedJ” (Chemical Science, 2025).

Target: T1, TedJ (Streptomyces sp. WAC04657, UniProt Z9VZN5SQU4)
T1 construct: N-terminal hexa-histidine tag, recombinant in E. coli, purified; homodimer
T1 sequence (Z9VZN5SQU4 20-510): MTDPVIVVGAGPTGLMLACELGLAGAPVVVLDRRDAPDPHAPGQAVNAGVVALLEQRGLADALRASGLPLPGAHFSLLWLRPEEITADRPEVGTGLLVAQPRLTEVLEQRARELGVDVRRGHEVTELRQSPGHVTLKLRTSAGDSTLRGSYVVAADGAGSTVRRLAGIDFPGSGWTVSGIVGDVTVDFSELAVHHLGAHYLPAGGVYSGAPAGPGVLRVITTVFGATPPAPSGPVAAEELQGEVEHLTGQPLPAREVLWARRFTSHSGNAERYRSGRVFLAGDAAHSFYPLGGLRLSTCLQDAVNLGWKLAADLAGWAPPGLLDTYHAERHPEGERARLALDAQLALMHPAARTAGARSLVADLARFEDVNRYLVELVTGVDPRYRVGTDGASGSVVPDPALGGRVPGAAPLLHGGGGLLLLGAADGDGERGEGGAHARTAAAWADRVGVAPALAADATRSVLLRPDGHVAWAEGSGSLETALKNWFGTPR
Assay: X-ray crystal structure ([…] Å); MS of denatured protein; absorbance spectrum
Type: binding
Conditions: non-covalently bound, co-purified; proposed structural role

Question: `Cc1cc2nc3c(=O)[nH]c(=O)nc-3n(C[C@H](O)[C@H](O)[C@H](O)COP(=O)(O)OP(=O)(O)OC[C@H]3O[C@@H](n4cnc5c(N)ncnc54)[C@H](O)[C@@H]3O)c2cc1C` [FAD] was tested. Which “X-ray crystal structure (1.6 Å); MS of denatured protein; absorbance spectrum” value did it give?
Answer: showing the enzyme active site and non-covalently bound FAD molecule
